Data reported in US20240025906A1 (NEURON23, INC., priority 2022, published 2024).
Where two headings read alike, the source gives them in different places.

Key:
[1] = test system: JAK1/TYK2 pSTAT5 (Tyr694/699) in THP-1 cell line; test: IFNa-stimulated JAK1/TYK2 pSTAT5 (Tyr694/699) inhibition cellular assay, AlphaLISA; assay type: cell-based; details: THP-1 cells, AlphaLISA (Assay B)
Summary of the method: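 THP-1 cells (2e4/well in HBSS) were preincubated with compound (8 points, 6-fold steps from 10000 nM final) for 1 h at 37 °C, then stimulated with IFNa (added at 100 ng/mL) for 30 min. Lysate pSTAT5 was read by AlphaLISA at 615 nm. IC50 came from a 4-parameter fit with bottom 0 and Hill −1.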

TYK2 JH2 = target: T1, TYK2 JH2 (Homo sapiens, UniProt P29597); test: TYK2 JH2 binding assay (KINOMEscan KdELECT competitive binding); details: TYK2 JH2 domain
T1 construct: purchased DiscoverX (KINOMEscan KdELECT service); host or cells: E. coli BL21-derived (T7 phage display) or HEK-293
Summary of the method: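 Test compounds were titrated in 11 three-fold steps against JH2 fragment captured on ligand-loaded magnetic beads, with 1 h incubation at room temperature and DMSO at 0.9%. Eluted kinase was quantified by qPCR, and Kd was fitted from the dose series.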

[2] = Homo sapiens, IFNa-stimulated, read-out: Cellular_THP1_IFNa-pSTATS_TYK2
[3] = KINOMEscan KdELECT (Assay A), read-out: Biochemical TYK2_DiscoverX_JH2_BND_Kd
[4] = Homo sapiens, IFNa-stimulated pSTAT5 (Tyr694/699), read-out: Cellular_THP1_IFNa-pSTATS_TYK2
[5] = DiscoverX KINOMEscan KdELECT (Assay A), read-out: Biochemical TYK2_DiscoverX_JH2_BND_Kd
[6] = Homo sapiens, IFNa-stimulated, read-out: Cellular THP1_IFNa-pSTATS_IC50
[7] = KINOMEscan KdELECT (Assay A), read-out: Biochemical TYK2_JH2_Kd

T1 sequence (P29597 589-875 limits assumed): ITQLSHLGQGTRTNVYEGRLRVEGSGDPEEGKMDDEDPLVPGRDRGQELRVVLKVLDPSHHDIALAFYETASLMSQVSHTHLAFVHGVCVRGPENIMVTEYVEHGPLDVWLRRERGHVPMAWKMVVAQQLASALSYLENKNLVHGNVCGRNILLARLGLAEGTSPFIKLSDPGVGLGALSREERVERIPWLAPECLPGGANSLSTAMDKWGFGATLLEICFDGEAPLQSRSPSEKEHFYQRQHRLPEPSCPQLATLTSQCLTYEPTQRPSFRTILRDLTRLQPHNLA

SMILES | IC50 [1, 2] | Kd (TYK2 JH2; [3]) | other results
CNc1ncc(C#Cc2ccc(OC(F)F)cn2)c2cc(NC(=O)C3CC3)ncc12 [Example 645, N-(5-((5-(difluoromethoxy)pyridin-2-yl)ethynyl)-8-(methylamino)-2,7-naphthyridin-3-yl)cyclopropanecarboxamide] | ≤ 500 nM | ≤ 100 nM | 
CNc1ncc(-c2nc3ccc(N4CCO[C@@H](C(F)(F)F)C4)cn3n2)c2cc(NC(=O)C3CC3)ncc12 [Example 482, (R)-N-(8-(methylamino)-5-(6-(2-(trifluoromethyl)morpholino)-[1,2,4]triazolo[1,5-a]pyridin-2-yl)-2,7-naphthyridin-3-yl)cyclopropanecarboxamide] | ≤ 500 nM |  | Kd (TYK2 JH2; [5]): ≤ 100 nM
CNc1ncc(C2CCCCC2)c2cc(NC(=O)C3CC3)ncc12 [Example 70, N-(5-cyclohexyl-8-(methylamino)-2,7-naphthyridin-3-yl)cyclopropanecarboxamide] |  |  | IC50 [1, 6]: > 500 nM; Kd (TYK2 JH2; [7]): ≤ 100 nM
CNc1ncc(-c2nc3ccc(OC)cn3n2)c2cc(Nc3cccc(OC)n3)ncc12 [Example 524, 4-(6-methoxy-[1,2,4]triazolo[1,5-a]pyridin-2-yl)-N^6-(6-methoxypyridin-2-yl)-N^1-methyl-2,7-naphthyridine-1,6-diamine] | ≤ 500 nM |  | Kd (TYK2 JH2; [5]): ≤ 100 nM
CNc1ncc(-c2ccn(Cc3noc(C)n3)n2)c2cc(NC(=O)C3CC3)ncc12 [Example 152, N-(5-(1-((5-methyl-1,2,4-oxadiazol-3-yl)methyl)-1H-pyrazol-3-yl)-8-(methylamino)-2,7-naphthyridin-3-yl)cyclopropanecarboxamide] |  |  | IC50 [1, 6]: > 500 nM; Kd (TYK2 JH2; [7]): ≤ 100 nM
CNc1ncc(-c2nc3cc(N4CC(C)(C)C4)ccc3o2)c2cc(NC(=O)C3CC3)ncc12 [Example 288, N-(5-(5-(3,3-dimethylazetidin-1-yl)benzo[d]oxazol-2-y1)-8-(methylamino)-2,7-naphthyridin-3-yl)cyclopropanecarboxamide] | ≤ 500 nM |  | Kd (TYK2 JH2; [5]): ≤ 100 nM
CNc1ncc(-c2nc3ccc(N4CC5COCC(C5)C4)cn3n2)c2cc(NC(=O)C3CC3)ncc12 [Example 583, N-(5-(6-(3-oxa-7-azabicyclo[3.3.1]nonan-7-yl)-[1,2,4]triazolo[1,5-a]pyridin-2-yl)-8-(methylamino)-2,7-naphthyridin-3-yl)cyclopropanecarboxamide] | ≤ 500 nM |  | Kd (TYK2 JH2; [5]): ≤ 100 nM
CNc1ncc(-c2nc3ccc(N4CCOCC4)cn3n2)c2cc(NC(=O)C3(C)CC3)ncc12 [Example 526, 1-methyl-N-(8-(methylamino)-5-(6-morpholino-[1,2,4]triazolo[1,5-a]pyridin-2-yl)-2,7-naphthyridin-3-yl)cycloproapne-1-carboxamide] | ≤ 500 nM |  | Kd (TYK2 JH2; [5]): ≤ 100 nM
CNc1ncc(-c2ccccc2)c2cc(NC(C)=O)ncc12 [Example 90, N-(8-(methylamino)-5-phenyl-2,7-naphthyridin-3-yl)acetamide] |  |  | IC50 [1, 6]: > 500 nM; Kd (TYK2 JH2; [7]): ≤ 100 nM
CNc1ncc(-c2nc3cc(OC4(C)COC4)ccc3o2)c2cc(NC(=O)C3CC3)ncc12 [Example 312, N-(8-(methylamino)-5-(5-((3-methyloxetan-3-yl)oxy)benzo[d]oxazol-2-yl)-2,7-naphthyridin-3-yl)cyclopropanecarboxamide] | ≤ 500 nM |  | Kd (TYK2 JH2; [5]): ≤ 100 nM
[2H]C([2H])([2H])Nc1ncc(-c2nc3ccccc3o2)c2cc(NC(=O)C3CC3F)ncc12 (racemic) [Example 434, N-(5-(benzo[d]oxazol-2-yl)-8-((methyl-d3)amino)-2,7-naphthyridin-3-yl)-2-fluorocyclopropane-1-carboxamide] |  |  | IC50 ([1]; IFNa-stimulated, read-out: Cellular_THP1_IFNa-pSTATS_TYK2): ≤ 500 nM; Kd (TYK2 JH2; [5]): ≤ 100 nM
CNc1ncc(-c2cscn2)c2cc(NC(=O)C3CC3)ncc12 [Example 65, N-(8-(methylamino)-5-(thiazol-4-yl)-2,7-naphthyridin-3-yl)cyclopropanecarboxamide] |  |  | IC50 [1, 6]: > 500 nM; Kd (TYK2 JH2; [7]): ≤ 100 nM
CNc1ncc(C2=CCOC2)c2cc(NC(=O)C3CC3)ncc12 [Example 75, N-(5-(2,5-dihydrofuran-3-yl)-8-(methylamino)-2,7-naphthyridin-3-yl)cyclopropanecarboxamide] |  |  | IC50 [1, 6]: > 500 nM; Kd (TYK2 JH2; [7]): ≤ 100 nM
CNc1ncc(C#Cc2ccc(OCF)cc2)c2cc(NC(=O)C3CC3)ncc12 [Example 656, N-(5-((4-(fluoromethoxy)phenyl)ethynyl)-8-(methylamino)-2,7-naphthyridin-3-yl)cyclopropanecarboxamide] | ≤ 500 nM | ≤ 100 nM | 
CNc1ncc(-c2nc3ccc(N4CCOCC4)cn3n2)c2cc(NC(=O)C3CCC3)ncc12 [Example 528, N-(8-(methylamino)-5-(6-morpholino-[1,2,4]triazolo[1,5-a]pyridin-2-yl)-2,7-naphthyridin-3-yl)cyclobutanecarboxamide] | ≤ 500 nM |  | Kd (TYK2 JH2; [5]): ≤ 100 nM
CCn1ccc(-c2cnc(NC)c3cnc(NC(=O)C4CC4)cc23)n1 [Example 147, N-(5-(1-ethyl-1H-pyrazol-3-yl)-8-(methylamino)-2,7-naphthyridin-3-yl)cyclopropanecarboxamide] |  |  | IC50 [1, 6]: ≤ 500 nM; Kd (TYK2 JH2; [7]): ≤ 100 nM

Further lines, with some results ahead:

IC50 [1, 2] | Kd (TYK2 JH2; [3]) | SMILES | other results
≤ 500 nM | ≤ 100 nM | CNc1ncc(C#Cc2ccncc2F)c2cc(NC(=O)C3CC3)ncc12 [Example 991, N-[5-[2-(3-fluoro-4-pyridyl)ethynyl]-8-(methylamino)-2,7-naphthyridin-3-yl]cyclopropanecarboxamide] | 
≤ 500 nM | ≤ 100 nM | CNc1ncc(-c2nc(-c3nc[nH]n3)co2)c2cc(NC(=O)C3CC3)ncc12 [Example 829, N-(5-(4-(1H-1,2,4-triazol-3-yl)oxazol-2-yl)-8-(methylamino)-2,7-naphthyridin-3-yl)cyclopropanecarboxamide] | 
≤ 500 nM | ≤ 100 nM | CNc1ncc(C2=Cc3ccccc3CO2)c2cc(NC(=O)C3CC3)ncc12 [Example 850, N-(5-(1H-isochromen-3-yl)-8-(methylamino)-2,7-naphthyridin-3-yl)cyclopropanecarboxamide] | 
> 500 nM | ≤ 100 nM | CNc1nc(C)c(C#Cc2ccc(OC)cc2)c2cc(NC(=O)C3CC3)ncc12 [Example 781, N-(5-((4-methoxyphenyl)ethynyl)-6-methyl-8-(methylamino)-2,7-naphthyridin-3-yl)cyclopropanecarboxamide] | 
≤ 500 nM | ≤ 100 nM | CNc1ncc(C#Cc2cn(C)c(C(F)(F)F)n2)c2cc(NC(=O)C3CC3)ncc12 [Example 897, N-(5-((1-methyl-2-(trifluoromethyl)-1H-imidazol-4-yl)ethynyl)-8-(methylamino)-2,7-naphthyridin-3-yl)cyclopropanecarboxamide] | 
 | ≤ 100 nM | CNc1ncc(C#Cc2cn(C)cn2)c2cc(NC(=O)[C@H]3C[C@H]3C)ncc12 [Example 1008, (1S,2R)-2-methyl-N-(5-((1-methyl-1H-imidazol-4-yl)ethynyl)-8-(methylamino)-2,7-naphthyridin-3-yl)cyclopropane-1-carboxamide] | IC50 [1, 4]: ≤ 500 nM
≤ 500 nM | ≤ 100 nM | CNc1ncc(C#Cc2ccc(S(=O)(=O)NC)cc2)c2cc(NC(=O)C3CC3)ncc12 [Example 673, N-(8-(methylamino)-5-((4-(N-methylsulfamoyl)phenyl)ethynyl)-2,7-naphthyridin-3-yl)cyclopropanecarboxamide] | 
≤ 500 nM | ≤ 100 nM | CNc1ncc(-c2nc3cc(N4CCO[C@@H](C(C)(C)O)C4)ccc3o2)c2cc(NC(=O)C3CC3)ncc12 (single isomer, unassigned) [Example 925] | 
 | ≤ 100 nM | CNc1ncc(-c2cn3ccc(OC)cc3n2)c2cc(NC(=O)C3CC3)ncc12 [Example 1025] | IC50 [1, 4]: > 500 nM
> 500 nM | ≤ 100 nM | CNc1ncc(C#Cc2ccc(OCC(C)(C)F)cc2)c2cc(NC(=O)C3CC3)ncc12 [Example 731, N-(5-((4-(2-fluoro-2-methylpropoxy)phenyl)ethynyl)-8-(methylamino)-2,7-naphthyridin-3-yl)cyclopropanecarboxamide] | 
≤ 500 nM | ≤ 100 nM | CNc1ncc(-c2nc3c(F)cccn3n2)c2cc(NC(=O)C3CC3)nnc12 [Example 887, N-(5-(8-fluoro-[1,2,4]triazolo[1,5-a]pyridin-2-yl)-8-(methylamino)pyrido[3,4-c]pyridazin-3-yl)cyclopropanecarboxamide] | 
≤ 500 nM | ≤ 100 nM | CNc1ncc(-c2cc3ccc(OC)cn3n2)c2cc(NC(=O)[C@H]3C[C@H]3C)ncc12 [Example 877, (1S,2R)—N-(5-(6-methoxypyrazolo[1,5-a]pyridin-2-yl)-8-(methylamino)-2,7-naphthyridin-3-yl)-2-methylcyclopropane-1-carboxamide] | 
 | ≤ 100 nM | CNc1ncc(-c2nc3cccc(OC)n3n2)c2cc(NC(=O)C3CC3)ncc12 [Example 1039] | IC50 [1, 4]: ≤ 500 nM
